According to patent US6855669B2, “Use of α,β unsaturated aliphatic aldehydes and ketones to inhibit potato tuber sprouting” (Washington State University Research Foundation, priority 2000, dated 2005):
Marks after values point to notes of the source that are not given here.

Legend:
Format in all cases: in vivo, Solanum tuberosum
[1] = tested on: Russet Burbank seed-tubers; assay: Example 3: etiolated sprout development and tuber quality after 28 days; conditions: 0.96 mmol/kg, 12 hours at 23° C.; 28 days at 15° C.
Protocol: (§1) Methods: Eleven-month-old Russet Burbank seed-tubers were taken from a 4° C. storage area and treated with 250 μL of trans-2-hexenal in a 9.2 liter (L) glass desiccator (0.96 mmol/kg potato tubers) for 12 hours at 23° C. The trans-2-hexenal was pipetted onto Whatman #1 filter paper in a glass petri dish (5.5 cm diameter) inside the desiccator. Control tubers were enclosed in a desiccator without trans-2-hexenal. Following treatment, the tubers were enclosed in 1 L […] chambers (3 tubers per chamber) that were placed at 15° C. A continuous airflow (approximately 80 mL/min; 21% O2, 79% N2) was established around the tubers through inlet and outlet ports in the lid of each chamber. Respiration rates were determined at four hour intervals over a 28 day storage period by quantifying CO2 in the outflow from each chamber with a LI-COR model 6262 infra-red gas analyzer (LI-COR Inc., Lincoln Nebr.). The experiment was set up in a randomized complete block design (5 replicates) with two treatments (control and trans-2-hexenal-treated). The effect of trans-2-hexenal exposure on the development of etiolated sprouts was assessed 28 days after removal from the 4° C. storage.

[2] = tested on: Russet Burbank seed-tubers; assay: Example 2: etiolated sprout development, tuber quality and soluble carbohydrates, Russet Burbank; conditions: 4.7 mmol/kg potato tubers, 25 days
Protocol: Methods: Ten-month-old Ranger Russet, Umatilla and Russet Burbank seed-tubers were taken from 4° C. storage and treated with trans-2-hexenal in 9.2-L glass desiccators as described in Example 1. The tubers were exposed to trans-2-hexenal for 0, 12 and 24 hours at 23° C. at a concentration of 4.7 mmol/kg potato tubers. Regardless of exposure time, all tubers remained enclosed in the chambers for the entire 24 hour period. This was accomplished by introducing the trans-2-hexenal at zero-time (into the 24 hour treatment desiccator) and after 12 hour incubation (into the 12 hour treatment desiccator) through a septum in the top of the closed desiccator. The treated tubers were planted into moistened peat/perlite/soil potting mix and placed in the dark at 24° C. to stimulate sprouting. The experiment was set up in a randomized complete block design (5 replicates) with treatments (3 cultivars×3 exposure times) arranged factorially. Effects of trans-2-hexenal exposure and cultivar on etiolated sprout development and tuber quality were assessed 25 days after removal from the 4° C. storage.

[3] = tested on: Russet Burbank and Ranger Russet seed-tubers; assay: Example 5: sprout inhibition by C5 to C9 trans-2 aldehydes over prolonged storage (17 weeks); conditions: 0.5, 0.75 and 1.0 mmol/kg tuber, 24 hours; 17 weeks at 8° C., 95% RH
Protocol: (46° F.), 95% relative humidity (RH), for 17 weeks. As described more fully in Example 5, four-month-old tubers (previously stored at 4° C.) were treated (for 24 h) with different concentrations of the aldehydes in mid January. The treated tubers were then stored in the dark for 120 days (17 weeks).
Methods: Four-month-old Russet Burbank and Ranger Russet seed-tubers were taken from a 4° C. storage area and treated (Jan. 10, 2001) separately with 0, 0.5, 0.75 and 1.0 mmol/kg tuber of trans-2-pentenal, trans-2-hexenal, trans-2-heptenal, trans-2-octenal, and trans-2-nonenal in 3.9 L glass jars. The volume of inhibitor required to achieve the above rates was pipetted onto filter paper discs inside the lids of each jar. The concentration of inhibitors in the headspace of the jars was equal at 0.16 mmol/L. The tubers were enclosed in the jars and thus exposed to inhibitor vapor for 24 hours at 23° C. Control tubers were enclosed in a glass jar without any aldehyde. Following treatment, tubers were removed from the jars and placed at 8° C. (46° F.) (95% relative humidity) in the dark to sprout for 120 days (17 weeks). The experiment was set up in a randomized complete block design (5 replicates) with chemicals and concentrations arranged factorially. Effects of the aliphatic aldehydes on the development of etiolated sprouts were documented photographically and quantitatively (sprout number and fresh weight) after 120 days of storage.

[4] = tested on: Russet Burbank seed-tubers; assay: Example 3: potato tuber respiration (CO2 in outflow, infra-red gas analyzer); conditions: 0.96 mmol/kg
Protocol: as §1

[5] = tested on: Russet Burbank seed tubers; assay: Example 4: sprout inhibition by aldehyde vapors, 26 days of sprouting; conditions: for Average Sprout Length / External Pit Rating (1-4 scale) / Sprout Fresh Weight: 12 hours vapor, 26 days at 18° C.
Protocol: Methods: Eleven-month-old Russet Burbank seed tubers were taken from a 4° C. storage area and exposed to trans-2-hexenal (0.6-4.3 mmol/kg), trans-2-heptenal (0.6-3.8 mmol/kg) and trans-2-octenal (0.5-2.5 mmol/kg) vapors separately in 3.9 L glass containers for 12 hours at 23° C. The aldehydes were applied to filter paper inside petri dishes within each jar. Control tubers were enclosed in a glass container without any aldehyde. Sprouts were ‘peeping’ (approximately 3 mm in length) at the time of treatment. Following treatment, tubers were placed at 18° C. (95% relative humidity) in the dark to sprout for 26 days. The experiment was set up in a randomized complete block design (5 replicates) with chemicals and concentrations arranged factorially. Effects of the aliphatic aldehydes on the development of etiolated sprouts were documented at 20 days (photographically) and 26 days of sprouting.

CCC/C=C/C=O [trans-2-hexenal]
Average Sprout Length [1]: 0** cm/tuber
Sprout fresh wt [1]: 0** g/tuber
Tuber external pit rating [1]: 2.2**
Tuber fresh wt loss [1]: 11.8** g/tuber
Average Sprout Length ([2]; 12 h exposure): 0 cm/tuber
External Pit Rating (1-4 scale) ([2]; 12 h exposure): 1.8
Soft Rot Lesions ([2]; 12 h exposure): 0.6 no/tuber
Soluble Carbohydrates Fru ([2]; 12 h exposure): 19.5 mg/g dry wt.
Soluble Carbohydrates Glu ([2]; 12 h exposure): 19.0 mg/g dry wt.
Soluble Carbohydrates Glu + Fru ([2]; 12 h exposure): 38.5 mg/g dry wt.
Soluble Carbohydrates Suc ([2]; 12 h exposure): 6.30 mg/g dry wt.
Sprout Fresh Weight ([2]; 12 h exposure): 0 g/tuber
Average Sprout Length ([2]; 24 h exposure): 0 cm/tuber
External Pit Rating (1-4 scale) ([2]; 24 h exposure): 2.2
Soft Rot Lesions ([2]; 24 h exposure): 0.4 no/tuber
Soluble Carbohydrates Fru ([2]; 24 h exposure): 17.8 mg/g dry wt.
Soluble Carbohydrates Glu ([2]; 24 h exposure): 16.5 mg/g dry wt.
Soluble Carbohydrates Glu + Fru ([2]; 24 h exposure): 34.3 mg/g dry wt.
Soluble Carbohydrates Suc ([2]; 24 h exposure): 6.28 mg/g dry wt.
Sprout Fresh Weight ([2]; 24 h exposure): 0 g/tuber
inhibition of sprout development (in words) [3]: inhibited sprouting in a concentration-dependent manner
time after treatment at which respiration reached a level equal to the untreated tubers ([4]; 12 hours, storage at 15° C.): ≤ 32 h
respiration lower than control tubers ([4]; by the end of the study (27 day storage at 15° C.)): 2.5 fold
respiration rate greater than untreated tubers ([4]; immediately following the 12 hour treatment period): 38%
Average Sprout Length ([5]; 0.63 mmol/kg): 0.2 cm/tuber
External Pit Rating (1-4 scale) ([5]; 0.63 mmol/kg): 1.4
Sprout Fresh Weight ([5]; 0.63 mmol/kg): 0.04 g/tuber
Average Sprout Length ([5]; 1.33 mmol/kg): 0 cm/tuber
External Pit Rating (1-4 scale) ([5]; 1.33 mmol/kg): 2.0
Sprout Fresh Weight ([5]; 1.33 mmol/kg): 0 g/tuber
Average Sprout Length ([5]; 2.06 mmol/kg): 0 cm/tuber
External Pit Rating (1-4 scale) ([5]; 2.06 mmol/kg): 2.6
Sprout Fresh Weight ([5]; 2.06 mmol/kg): 0 g/tuber
Average Sprout Length ([5]; 2.50 mmol/kg): 0 cm/tuber
External Pit Rating (1-4 scale) ([5]; 2.50 mmol/kg): 3.5
Sprout Fresh Weight ([5]; 2.50 mmol/kg): 0 g/tuber
Average Sprout Length ([5]; 4.34 mmol/kg): 0 cm/tuber
External Pit Rating (1-4 scale) ([5]; 4.34 mmol/kg): 2.8
Sprout Fresh Weight ([5]; 4.34 mmol/kg): 0 g/tuber
external pitting (in words) ([5]; lowest concentration): minimal
